{
  "source": "patent US20070042448A1",
  "about": "“Use of enzymes from Helicobacter pylori as therapeutical targets” (priority 2005, published 2007)",
  "key": {"[1]": {"tested_on": "H. pylori 26695 amiA mutant", "assay": "Minimum inhibitory concentration (MIC) on plates, amiA mutant", "format": "cell-based, Helicobacter pylori", "description": "(§1) Minimal Inhibitory Concentration (MIC). To determine the MIC for amoxicillin, suspensions of H. pylori estimated to contain […] bacteria/ml (OD600 nm of 0.1) were serially diluted and grown on plates containing various concentrations of amoxicillin. The MIC was defined as the amoxicillin concentration leading to a decrease of 3 log of CFU/ml as compared to growth without amoxicillin.\n(§2) To determine the MIC of different antibiotics, suspensions of H. pylori estimated to contain 10^8 bacteria/ml (OD600 nm of 0.1) were serially diluted and grown on plates containing various concentrations of amoxicillin. The MIC was defined as the minimal concentration leading to a decrease of 3 log of CFU/ml as compared to growth without antibiotic. Minimum bactericidal concentration (MBC) for amoxicillin was done as follow. Bacteria were grown in increasing concentrations of amoxicillin in liquid culture and OD600 nm was monitored. After 18 hours, CFU/ml counts were determined for each amoxicillin concentration. MBC was defined as the concentration leading to a 3 log decrease of CFU/ml as compared as growth without amoxicillin."}, "[2]": {"tested_on": "H. pylori strain 26695", "assay": "Minimum inhibitory concentration (MIC) on plates, parental strain", "format": "cell-based, Helicobacter pylori", "description": "as §1, §2"}, "[3]": {"target": "T1, human Nod2 (Homo sapiens, UniProt Q9HC29)", "T1 construct": "host or cells: HEK293T", "T1 sequence (Q9HC29 whole entry)": "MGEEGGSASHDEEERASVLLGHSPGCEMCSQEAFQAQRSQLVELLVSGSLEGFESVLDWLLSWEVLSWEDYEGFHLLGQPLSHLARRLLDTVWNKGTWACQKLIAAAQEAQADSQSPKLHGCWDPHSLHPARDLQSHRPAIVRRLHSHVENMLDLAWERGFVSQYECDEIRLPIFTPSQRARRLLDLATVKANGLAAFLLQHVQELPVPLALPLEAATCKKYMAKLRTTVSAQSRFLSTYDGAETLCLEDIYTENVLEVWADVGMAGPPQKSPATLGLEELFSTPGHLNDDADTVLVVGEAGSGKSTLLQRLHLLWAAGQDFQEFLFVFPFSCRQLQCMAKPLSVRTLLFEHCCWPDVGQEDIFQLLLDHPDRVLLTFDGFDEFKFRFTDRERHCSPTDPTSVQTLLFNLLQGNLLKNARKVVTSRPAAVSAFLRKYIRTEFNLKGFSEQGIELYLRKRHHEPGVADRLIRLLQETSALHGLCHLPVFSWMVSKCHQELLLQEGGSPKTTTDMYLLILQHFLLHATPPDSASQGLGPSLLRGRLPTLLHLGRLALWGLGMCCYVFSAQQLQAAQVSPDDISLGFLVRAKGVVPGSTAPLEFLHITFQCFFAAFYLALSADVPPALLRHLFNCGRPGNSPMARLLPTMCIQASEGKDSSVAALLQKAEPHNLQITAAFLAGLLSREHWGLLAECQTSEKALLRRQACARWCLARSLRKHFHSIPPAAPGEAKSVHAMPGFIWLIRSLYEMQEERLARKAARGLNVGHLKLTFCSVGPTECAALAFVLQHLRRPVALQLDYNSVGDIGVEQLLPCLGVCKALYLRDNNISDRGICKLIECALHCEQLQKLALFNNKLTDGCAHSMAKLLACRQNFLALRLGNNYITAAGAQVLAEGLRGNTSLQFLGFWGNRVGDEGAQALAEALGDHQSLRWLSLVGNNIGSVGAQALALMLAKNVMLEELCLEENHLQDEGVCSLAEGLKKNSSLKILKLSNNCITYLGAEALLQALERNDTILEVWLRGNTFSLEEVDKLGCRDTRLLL", "assay": "Nod2-dependent NF-κB luciferase activation in transfected HEK293T cells", "format": "cell-based", "settings": "HEK293T cells transfected with hNod2 and luciferase reporter; FIG. 4D", "description": "Expression Plasmids, Transient Transfections and NF-κB Activation Assays. The expression plasmid for FLAG-tagged hNod1 was from Gabriel Nuñez (University of Michigan Medical School, Ann Arbor, Mich.) and has been described previously. The expression plasmid for hNod2 was from Gilles Thomas (Foundation Jean Dausset/CEPH, Paris, France). HEK293T cells were used for transfections as described previously. Synergistic activation of NF-κB by PGs, muramyl peptides, and related compounds in cells over-expressing Nod1 or Nod2 was studied as described by Inohara et al.. Briefly, HEK293T cells were transfected overnight with 10 ng of hNod1 or 30 ng of hNod2 plus 75 ng of Ig luciferase reporter plasmid. PG samples (0.1 μg/ml) were digested with 0.25 μg/μl mutanolysin. At the same time, 0.3 μg of PG preparations or 10 pmol of muramyl-peptides were added to the cell culture medium, and synergistic NF-κB-dependent luciferase activation was measured after 24 h of co-incubation. NF-κB-dependent luciferase assays were performed in duplicate, and data reported represent at least three independent experiments. Data was standardized with positive controls: M-dipeptide for hNod2 and M-tripeptide for hNod1. hNod1 and hNod2 were activated with H. pylori PG (0.3 μg/ml) digested with M1 or Slt70 as previously described."}, "[4]": {"tested_on": "H. pylori 26695 amiA− complemented", "assay": "Minimum bactericidal concentration (MBC) in liquid culture, complemented amiA mutant", "format": "cell-based, Helicobacter pylori", "experimental": "as §2"}, "[5]": {"tested_on": "H. pylori 26695 amiA mutant", "assay": "Minimum bactericidal concentration (MBC) in liquid culture, amiA mutant", "format": "cell-based, Helicobacter pylori", "settings": "18 hours, maximum concentration tested 32 μg/ml", "experimental": "as §2"}, "[6]": {"tested_on": "H. pylori 26695 amiA− complemented", "assay": "Minimum inhibitory concentration (MIC) on plates, complemented amiA mutant", "format": "cell-based", "settings": "Helicobacter pylori, read-out: MIC (μg/ml of amoxicillin)", "experimental": "as §2"}, "[7]": {"tested_on": "H. pylori strain 26695", "assay": "Morphological transition into coccoid forms after amoxicillin (scanning electron microscopy), parental strain", "format": "cell-based, Helicobacter pylori", "settings": "3-4 h exposure to amoxicillin (10 μg/ml) after 18 h of growth without antibiotic", "experimental": "(§3) Some stress signals, including amoxicillin treatment, can induce the morphological transition into coccoid forms. The inventors investigated the response of the ami A mutant to amoxicillin. First the inventors determined the MIC of amoxicillin: it was identical for the ami A mutant and the parental strain 26695 (0.06 μg/ml). After overnight culture, 10 μg/ml of amoxicillin was added to the media and after three hours of antibiotic treatment bacteria were observed by scanning electron microscopy. […] Thus, AmiA is required both for PG modifications and morphological transition.\n(§4) For scanning electron microscopy (SEM), samples were washed in PBS, prefixed in 2.5% glutaraldehyde in 0.1M cacodylate buffer for 30 minutes and then rinsed in 0.2M cacodylate buffer. After post-fixation in 1% osmium tetraoxide (in 0.2M cacodylate buffer), bacteria were dehydrated in a series of ethanol concentrations. Specimens were critical-point dried using carbon dioxide, then coated with gold and examined with a JEOL JSM-6700F SEM."}, "[8]": {"tested_on": "H. pylori 26695 amiA mutant", "assay": "Morphological transition into coccoid forms after amoxicillin (scanning electron microscopy), amiA mutant", "format": "cell-based, Helicobacter pylori", "experimental": "as §3, §4"}, "[9]": {"tested_on": "H. pylori strain 26695", "assay": "Minimum bactericidal concentration (MBC) in liquid culture, parental strain", "format": "cell-based, Helicobacter pylori", "experimental": "as §2"}, "[10]": {"settings": "Helicobacter pylori, other antibiotics, read-out: MIC"}},
  "note": "Where two headings read alike, the source gives them in different places. Positions of bridges follow the written chain, without caps; N, C: chain ends. Non-standard residues stand in square brackets, D forms with d. Residues, ends and D or L forms follow the SMILES beside them. *: point of attachment. Ileψ(thiazoline)Cys = CC[C@H](C)[C@H](N)C1=N[C@H](C(=O)*)CS1; dOrn = NCCC[C@@H](N)C(=O)O",
  "data": [
    {"compound": "COc1cc(Cc2cnc(N)nc2N)cc(OC)c1OC", "note": "[Trimethroprime]", "values": [
      {"measurement": "MIC", "setting": "[1]; 26695 amiA mutant, other antibiotics", "value": ">100", "unit": "µg/mL"},
      {"measurement": "MIC", "setting": "[2]; other antibiotics", "value": ">100", "unit": "µg/mL"}
    ]},
    {"compound": "CCn1cc(C(=O)O)c(=O)c2ccc(C)nc21", "note": "[Nalidixic acid]", "values": [
      {"measurement": "MIC", "setting": "[1]; Helicobacter pylori", "value": 30, "unit": "µg/mL"},
      {"measurement": "MIC", "setting": "[2]; [10]", "value": 30, "unit": "µg/mL"}
    ]},
    {"compound": "CN[C@H](CC(C)C)C(=O)N[C@H]1C(=O)N[C@@H](CC(N)=O)C(=O)N[C@H]2C(=O)N[C@H]3C(=O)N[C@H](C(=O)N[C@H](C(=O)O)c4cc(O)cc(O)c4-c4cc3ccc4O)[C@H](O)c3ccc(c(Cl)c3)Oc3cc2cc(c3O[C@@H]2O[C@H](CO)[C@@H](O)[C@H](O)[C@H]2O[C@H]2C[C@](C)(N)[C@H](O)[C@H](C)O2)Oc2ccc(cc2Cl)[C@H]1O", "note": "[Vancomycin]", "values": [
      {"measurement": "MIC", "setting": "[1]; Helicobacter pylori", "value": "> 1000", "unit": "µg/mL"},
      {"measurement": "MIC", "setting": "[2]; [10]", "value": "> 1000", "unit": "µg/mL"}
    ]},
    {"compound": "[H]/N=C(/N)N[C@H]1[C@H](O)[C@@H](O)[C@H](O[C@@H]2O[C@@H](C)[C@](O)(C=O)[C@H]2O[C@@H]2O[C@@H](CO)[C@H](O)[C@@H](O)[C@@H]2NC)[C@@H](N/C(N)=N\\[H])[C@@H]1O", "note": "[Streptomycin]", "values": [
      {"measurement": "MIC", "setting": "[1]; Helicobacter pylori", "value": 1, "unit": "µg/mL"},
      {"measurement": "MIC", "setting": "[2]; [10]", "value": 1, "unit": "µg/mL"}
    ]},
    {"compound": "Cc1ncc([N+](=O)[O-])n1CCO", "note": "[Metronidazole]", "values": [
      {"measurement": "MIC", "setting": "[1]; Helicobacter pylori", "value": 1, "unit": "µg/mL"},
      {"measurement": "MIC", "setting": "[2]; [10]", "value": 1, "unit": "µg/mL"}
    ]},
    {"compound": "CC[C@H](C)[C@H](N)C1=N[C@H](C(=O)N[C@@H](CC(C)C)C(=O)N[C@H](CCC(=O)O)C(=O)N[C@H](C(=O)N[C@H]2CCCCNC(=O)[C@H](CC(N)=O)NC(=O)[C@@H](CC(=O)O)NC(=O)[C@H](Cc3cnc[nH]3)NC(=O)[C@@H](Cc3ccccc3)NC(=O)[C@H]([C@@H](C)CC)NC(=O)[C@@H](CCCN)NC2=O)[C@@H](C)CC)CS1", "note": "[Bacitracin] ({Ileψ(thiazoline)Cys}-L[dE]IK[dOrn]I[dF]H[dD]N; lactam 4-C)", "values": [
      {"measurement": "MIC", "setting": "[1]; Helicobacter pylori", "value": "> 1000", "unit": "µg/mL"},
      {"measurement": "MIC", "setting": "[2]; [10]", "value": "> 1000", "unit": "µg/mL"}
    ]},
    {"compound": "CC(=O)NC1C(OC2C(CO)OC(O)C(NC(C)=O)C2OC(C)C(=O)NC(C)C(=O)NC(CCC(=O)O)C(=O)O)OC(CO)C(O)C1O", "note": "[GM-dipeptide, N-acetyl-D-glucosminyl-β(1,4)-N-acetylmuramyl-L-Ala-D-Glu]", "values": [
      {"measurement": "Nod2-dependent activation of NF-κB", "setting": "[3]", "value": "detected via Nod2 in a dose dependent manner"}
    ]},
    {"compound": "CC1(C)S[C@@H]2[C@H](NC(=O)[C@H](N)c3ccc(O)cc3)C(=O)N2[C@H]1C(=O)O", "note": "[amoxicillin]", "values": [
      {"measurement": "MIC", "setting": "[1]; Helicobacter pylori, read-out: MIC (μg/ml of amoxicillin)", "value": 0.06, "unit": "µg/mL"},
      {"measurement": "Ratio MBC/MIC", "setting": "[4]", "value": 2},
      {"measurement": "MCB (μg/ml of amoxicillin)", "setting": "[4]; liquid culture, 18 hours", "value": 0.250, "unit": "µg/mL"},
      {"measurement": "MCB (μg/ml of amoxicillin)", "setting": "[5]", "value": ">32", "unit": "µg/mL"},
      {"measurement": "MIC", "setting": "[6]", "value": 0.125, "unit": "µg/mL"},
      {"measurement": "% of coccoids (includes U and donut forms)", "setting": "[7]", "value": 56.64, "unit": "%"},
      {"measurement": "Morphology of amiA mutant after amoxicillin", "setting": "[8]; 10 μg/ml amoxicillin, three hours, after overnight culture, scanning electron microscopy", "value": "formed chains of spherical bacteria"},
      {"measurement": "% of coccoids (includes U and donut forms)", "setting": "[8]; 26695 amiA−, 3-4 h exposure to amoxicillin (10 μg/ml) after 18 h of growth without antibiotic", "value": 32.60, "unit": "%"},
      {"measurement": "Coccoid formation of amiA mutant after amoxicillin", "setting": "[8]; exposure to 100 times its MIC", "value": "still induced coccoid formation"},
      {"measurement": "Ratio MBC/MIC", "setting": "[9]", "value": 1},
      {"measurement": "MCB (μg/ml of amoxicillin)", "setting": "[9]; liquid culture, 18 hours, 3 log decrease of CFU/ml", "value": 0.06, "unit": "µg/mL"},
      {"measurement": "MIC", "setting": "[2]; Helicobacter pylori, 3 log decrease of CFU/ml, read-out: MIC (μg/ml of amoxicillin)", "value": 0.06, "unit": "µg/mL"}
    ]}
  ]
}
